Laboratory results as given in patent publication US20100041612A1, “Fragments of the Glucagon-Like Peptide-1 and Uses Thereof” (priority 2005, published 2010).
Square brackets hold non-standard residues; d marks the D form. Peptide text beside a SMILES is read from it. Bip = N[C@@H](Cc1ccc(-c2ccccc2)cc1)C(=O)O

Legend:
[1] = system: Zucker diabetic fatty (ZDF) rats; assay: Preclinical trial protocol in Zucker diabetic fatty (ZDF) rats: blood glucose and islet cell mass; type: in vivo, rat; details: versus saline; for blood glucose levels: 1 μg/kg/day to 100 mg/kg/day; for islet cell mass in pancreases: histology
Experimental: In this example, qualified animal models for diabetes are employed to examine the dose ranges of GLP-1 (7-20).
Treatment with GLP-1 (7-20) Animal Model. Zucker diabetic fatty (ZDF) rats are a well characterized type 2 diabetes animal model. (Suh Y H, et al. J Mol. Endocrinol. 2005 April; 34(2):299-315.)
Doses of GLP-1 (7-20) range from 1 μg/kg/day to 100 mg/kg/day.
Treatment. Cohorts are treated in 2 arms with 2-4 dose ranges of GLP-1 (7-20) amide and a placebo, at a compensated dose for animal size, metabolism and circulation. Arm 1: saline, Arm 2: GLP-1 (7-20) amide.
Study Assessment. Blood glucose levels are measured every week with a One Touch II glucose meter (Lifescan). Blood insulin levels are also measured. Rats are considered diabetic after 2 consecutive blood glucose measurements over 300 mg/dl. For histological analysis, pancreases are snap-frozen. Multiple 5-μm sections are stained with hematoxylin and eosin and scored blindly for islet cell mass as known in the art. […]
Animal Model. Zucker diabetic fatty (ZDF) rats are a well characterized type 2 diabetes animal model. (Suh Y H, et al. J Mol Endocrinol. 2005 April; 34(2):299-315.) […]
Treatment. Cohorts are treated in 6 arms with 2-4 dose ranges of each drug and a placebo, at a compensated dose for animal size, metabolism and circulation. Arm 1: saline, Arm 2: GLP-1 (7-20)−bpa; Arm 3: GLP-1 (7-20)+bpa; Arm 4: GLP-1 (7-20)−bpa plus pravastatin; Arm 5: GLP-1 (7-20)+bpa plus pravastatin; Arm 6: GLP-1 (7-20)−bpa plus GLP-1 (7-20)+bpa plus pravastatin.
Study Assessment. Blood glucose levels are measured every week with a One Touch II glucose meter (Lifescan). Blood insulin levels are also measured. Rats are considered diabetic after 2 consecutive measurements over 300 mg/dl. For histological analysis, pancreases are snap-frozen. Multiple 5-μm sections are stained with hematoxylin and eosin and scored blindly for islet cell mass as known in the art.

[2] = biological target: wild-type human GLP-1 receptor (Homo sapiens, UniProt P43220); assay: Peptide induced cAMP production (radioimmunoassay) in COS-7 cells transfected with wild-type GLP-1 receptor
Experimental: COS-7 cells were transiently transfected with cDNA encoding the wild-type human GLP-1 receptor. Peptide induced cAMP production was measured by radioimmunoassay.

[3] = system: hyperactive human GLP-1 receptor variant; assay: Peptide induced cAMP production (radioimmunoassay) in COS-7 cells transfected with hyperactive GLP-1 receptor variant; type: cell-based; details: for EC50: COS-7 cells, hyperactive human GLP-1 receptor variant
Text: The same peptides were used as described above, with the underivatized GLP-1 (7-20) amide represented in FIG. 1B with closed squares (“−bpa”) and the GLP-1 (7-20) carboxy-terminal tethered with a small molecule, biphenylalanine, represented by open squares (“+bpa”).

Sequence of wild-type human GLP-1 receptor (P43220 24-463): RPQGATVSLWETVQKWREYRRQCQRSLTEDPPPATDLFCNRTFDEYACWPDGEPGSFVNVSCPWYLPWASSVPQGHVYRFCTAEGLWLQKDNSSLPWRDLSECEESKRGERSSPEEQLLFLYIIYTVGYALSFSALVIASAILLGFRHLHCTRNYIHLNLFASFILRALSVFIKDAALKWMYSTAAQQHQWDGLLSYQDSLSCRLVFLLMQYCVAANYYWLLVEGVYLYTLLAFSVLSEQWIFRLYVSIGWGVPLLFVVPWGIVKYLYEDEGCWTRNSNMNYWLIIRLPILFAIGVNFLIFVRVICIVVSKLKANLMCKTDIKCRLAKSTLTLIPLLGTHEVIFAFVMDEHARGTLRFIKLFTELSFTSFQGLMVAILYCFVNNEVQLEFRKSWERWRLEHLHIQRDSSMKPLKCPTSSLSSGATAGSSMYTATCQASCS

affinity for the GLP-1 receptor compared with full length GLP-1 ([2]; statement referring to Example 1) | SMILES | blood glucose levels [1] | islet cell mass in pancreases [1] | EC50 [3] [µM] | potency increase compared to the function of this peptide at the wild type receptor ([3]; hyperactive versus wild type receptor) [fold] | potency increase by carboxy-terminal tethering of biphenylalanine ([2]; versus underivatized GLP-1 (7-20) amide, wild-type receptor) [fold] | higher potency than GLP-1 (7-20) amide -bpa at the hyperactive receptor ([3]; hyperactive receptor, +bpa versus -bpa) [fold]
lower affinity than full length GLP-1 | CC(C)C[C@H](NC(=O)[C@H](Cc1ccc(O)cc1)NC(=O)[C@H](CO)NC(=O)[C@H](CO)NC(=O)[C@@H](NC(=O)[C@H](CC(=O)O)NC(=O)[C@H](CO)NC(=O)[C@@H](NC(=O)[C@H](Cc1ccccc1)NC(=O)[C@@H](NC(=O)CNC(=O)[C@H](CCC(=O)O)NC(=O)[C@H](C)NC(=O)[C@@H](N)Cc1c[nH]cn1)[C@@H](C)O)[C@@H](C)O)C(C)C)C(N)=O [GLP-1 (7-20) amide] (H-HAEGTFTSDVSSYL-NH2; N-terminus assumed) | pronounced reduction | increased | 24 | 10 |  | 
 | CC(C)C[C@H](NC(=O)[C@H](Cc1ccc(O)cc1)NC(=O)[C@H](CO)NC(=O)[C@H](CO)NC(=O)[C@@H](NC(=O)[C@H](CC(=O)O)NC(=O)[C@H](CO)NC(=O)[C@@H](NC(=O)[C@H](Cc1ccccc1)NC(=O)[C@@H](NC(=O)CNC(=O)[C@H](CCC(=O)O)NC(=O)[C@H](C)NC(=O)[C@@H](N)Cc1c[nH]cn1)[C@@H](C)O)[C@@H](C)O)C(C)C)C(=O)N[C@@H](Cc1ccc(-c2ccccc2)cc1)C(N)=O [GLP-1 (7-20)+bpa] (H-HAEGTFTSDVSSYL[Bip]-NH2; N-terminus and C-terminus assumed) | pronounced reduction | increased | 2 |  | 22 | 10
